Species: Rattus norvegicus
Experiment: DrugMatrix - Regimen: Daily Repeat
Assay type: toxicity, organism-based, Sprague-Dawley
Set-up: regimen Daily Repeat, gender Male, age 6-8 weeks
Settings: in vivo, po, route oral GAVAGE, […]; for ABSOLUTE BASOPHIL / ABSOLUTE EOSINOPHIL / ABSOLUTE LYMPHOCYTE / ABSOLUTE MONOCYTE / ABSOLUTE SEGMENTED NEUTROPHIL / BASOPHIL / EOSINOPHIL / ERYTHROCYTE COUNT / HEMATOCRIT / HEMOGLOBIN / LEUKOCYTE COUNT / LYMPHOCYTE / MEAN CORPUSCULAR HEMOGLOBIN / MEAN CORPUSCULAR HEMOGLOBIN CONCENTRATION / MEAN CORPUSCULAR VOLUME / MONOCYTE / NEUTROPHIL / NUCLEATED RED BLOOD CELLS / PLATELET COUNT: tissue Blood; for ALANINE AMINOTRANSFERASE / ALBUMIN / ALKALINE PHOSPHATASE / ASPARTATE AMINOTRANSFERASE / BLOOD UREA NITROGEN / CARBON DIOXIDE / CHLORIDE / CHOLESTEROL / CREATINE PHOSPHOKINASE / CREATININE / GLUCOSE / LACTATE DEHYDROGENASE / LIPASE / PHOSPHORUS / POTASSIUM / SODIUM / TOTAL BILIRUBIN / TOTAL PROTEIN / URIC ACID: tissue Plasma
[1] = 0 mg/kg, 72 h, dose level Control, time 3 day
[2] = 0 mg/kg, dose level Control, time 7 day
[3] = 400 mg/kg, 72 h, dose level Low, time 3 day

ClC(Cl)(Cl)Cl [CARBON TETRACHLORIDE]
ABSOLUTE BASOPHIL [1]: 0 CELLS/uL | ABSOLUTE EOSINOPHIL [1]: 47.5 CELLS/uL | ABSOLUTE LYMPHOCYTE [1]: 9600.67 CELLS/uL | ABSOLUTE MONOCYTE [1]: 195.5 CELLS/uL | ABSOLUTE SEGMENTED NEUTROPHIL [1]: 839.67 CELLS/uL | BASOPHIL [1]: 0% | EOSINOPHIL [1]: 0.5% | ERYTHROCYTE COUNT [1]: 5.26 x10E6/uL | HEMATOCRIT [1]: 34.48% | HEMOGLOBIN [1]: 12.77 G/DL | LEUKOCYTE COUNT [1]: 10.68 x10E3/uL | LYMPHOCYTE [1]: 89.67% | MEAN CORPUSCULAR HEMOGLOBIN [1]: 24.3 pg | MEAN CORPUSCULAR HEMOGLOBIN CONCENTRATION [1]: 37.05 G/DL | MEAN CORPUSCULAR VOLUME [1]: 65.62 fL | MONOCYTE [1]: 1.83% | NEUTROPHIL [1]: 8% | NUCLEATED RED BLOOD CELLS [1]: 0.17 /100WBC | PLATELET COUNT [1]: 1038.67 x10E3/uL | ALANINE AMINOTRANSFERASE [1]: 65.17 u/L | ALBUMIN [1]: 4.2 G/DL | ALKALINE PHOSPHATASE [1]: 377.5 u/L | ASPARTATE AMINOTRANSFERASE [1]: 90.5 u/L | BLOOD UREA NITROGEN [1]: 13.5 mg/dL | CARBON DIOXIDE [1]: 31.17 mmol/L | CHLORIDE [1]: 98.33 MEQ/L | CHOLESTEROL [1]: 66.33 mg/dL | CREATINE PHOSPHOKINASE [1]: 478.83 u/L | CREATININE [1]: 0.19 mg/dL | GLUCOSE [1]: 155.17 mg/dL | LACTATE DEHYDROGENASE [1]: 107.5 u/L | LIPASE [1]: 10.33 u/L | PHOSPHORUS [1]: 9.25 mg/dL | POTASSIUM [1]: 5.43 MEQ/L | SODIUM [1]: 142.05 MEQ/L | TOTAL BILIRUBIN [1]: 0.12 mg/dL | TOTAL PROTEIN [1]: 5.95 G/DL | URIC ACID [1]: 0.62 mg/dL | ABSOLUTE BASOPHIL [2]: 0 CELLS/uL | ABSOLUTE EOSINOPHIL [2]: 43.5 CELLS/uL | ABSOLUTE LYMPHOCYTE [2]: 9369.83 CELLS/uL | ABSOLUTE MONOCYTE [2]: 196.17 CELLS/uL | ABSOLUTE SEGMENTED NEUTROPHIL [2]: 723.83 CELLS/uL | BASOPHIL [2]: 0% | EOSINOPHIL [2]: 0.5% | ERYTHROCYTE COUNT [2]: 5.09 x10E6/uL | HEMATOCRIT [2]: 32.42% | HEMOGLOBIN [2]: 13.1 G/DL | LEUKOCYTE COUNT [2]: 10.33 x10E3/uL | LYMPHOCYTE [2]: 90.83% | MEAN CORPUSCULAR HEMOGLOBIN [2]: 25.75 pg | MEAN CORPUSCULAR HEMOGLOBIN CONCENTRATION [2]: 40.43 G/DL | MEAN CORPUSCULAR VOLUME [2]: 63.62 fL | MONOCYTE [2]: 1.67% | NEUTROPHIL [2]: 7% | NUCLEATED RED BLOOD CELLS [2]: 0 /100WBC | PLATELET COUNT [2]: 1106.5 x10E3/uL | ALANINE AMINOTRANSFERASE [2]: 48.67 u/L | ALBUMIN [2]: 4.13 G/DL | ALKALINE PHOSPHATASE [2]: 275.17 u/L | ASPARTATE AMINOTRANSFERASE [2]: 73.17 u/L | BLOOD UREA NITROGEN [2]: 13.17 mg/dL | CARBON DIOXIDE [2]: 27.5 mmol/L | CHLORIDE [2]: 99.67 MEQ/L | CHOLESTEROL [2]: 60.83 mg/dL | CREATINE PHOSPHOKINASE [2]: 213 u/L | CREATININE [2]: 0.2 mg/dL | GLUCOSE [2]: 166.67 mg/dL | LACTATE DEHYDROGENASE [2]: 94.5 u/L | LIPASE [2]: 10.5 u/L | PHOSPHORUS [2]: 9.98 mg/dL | POTASSIUM [2]: 5.3 MEQ/L | SODIUM [2]: 140.77 MEQ/L | TOTAL BILIRUBIN [2]: 0.15 mg/dL | TOTAL PROTEIN [2]: 5.88 G/DL | URIC ACID [2]: 0.82 mg/dL | ABSOLUTE BASOPHIL [3]: 0 CELLS/uL | ABSOLUTE EOSINOPHIL [3]: 68.67 CELLS/uL | ABSOLUTE LYMPHOCYTE [3]: 9955.17 CELLS/uL | ABSOLUTE MONOCYTE [3]: 295.83 CELLS/uL | ABSOLUTE SEGMENTED NEUTROPHIL [3]: 1063.67 CELLS/uL | BASOPHIL [3]: 0% | EOSINOPHIL [3]: 0.67% | ERYTHROCYTE COUNT [3]: 5.78 x10E6/uL | HEMATOCRIT [3]: 36.52% | HEMOGLOBIN [3]: 13.38 G/DL | LEUKOCYTE COUNT [3]: 11.38 x10E3/uL | LYMPHOCYTE [3]: 87.5% | MEAN CORPUSCULAR HEMOGLOBIN [3]: 23.22 pg | MEAN CORPUSCULAR HEMOGLOBIN CONCENTRATION [3]: 36.7 G/DL | MEAN CORPUSCULAR VOLUME [3]: 63.22 fL | MONOCYTE [3]: 2.67% | NEUTROPHIL [3]: 9.17% | NUCLEATED RED BLOOD CELLS [3]: 0 /100WBC | PLATELET COUNT [3]: 836.5 x10E3/uL | ALANINE AMINOTRANSFERASE [3]: 112.17 u/L | ALBUMIN [3]: 3.92 G/DL | ALKALINE PHOSPHATASE [3]: 474.67 u/L | ASPARTATE AMINOTRANSFERASE [3]: 154.33 u/L | BLOOD UREA NITROGEN [3]: 15.5 mg/dL | CARBON DIOXIDE [3]: 31.67 mmol/L | CHLORIDE [3]: 101 MEQ/L | CHOLESTEROL [3]: 43.17 mg/dL | CREATINE PHOSPHOKINASE [3]: 313.5 u/L | CREATININE [3]: 0.21 mg/dL | GLUCOSE [3]: 143.17 mg/dL | LACTATE DEHYDROGENASE [3]: 105 u/L | LIPASE [3]: 12 u/L | PHOSPHORUS [3]: 9.75 mg/dL | POTASSIUM [3]: 5.51 MEQ/L | SODIUM [3]: 145.37 MEQ/L | TOTAL BILIRUBIN [3]: 0.1 mg/dL | TOTAL PROTEIN [3]: 5.6 G/DL | URIC ACID [3]: 0.52 mg/dL

— ChEMBL document CHEMBL3885881, “DrugMatrix”
